Measured values published in patent publication US20040242870A1, “Antiviral methods and compounds” (priority 2000, published 2004).
Where two headings read alike, the source gives them in different places.

Experiments:
PBMCs [1] = assay: PBMC cytotoxicity in time-of-addition assay; assay type: cell-based, Human
Excerpt: Human peripheral blood mononuclear cells from a minimum of 2 donors, that have been blasted with PHA and IL-2, were counted, viability determined by Trypan Blue dye exclusion and mixed in equal ratios. Pooled donors were used to minimize the variability observed between individual donors which results from quantitative and qualitative differences in HIV infection and overall response to the PHA and IL-2 of primary lymphocyte populations. The cells were resuspended at 1×10^6 cells/mL in RPMI 1640 without phenol red supplemented with 15% Fetal Bovine Serum (heat inactivated), 2 mM L-glutamine, 100 U/mL penicillin, 100 μg/mL streptomycin, 10 μg/Ln gentamycin and IL-2 (20 U/mL, R&D Systems, Minneapolis, Minn.). Fifty microliters of cells were then distributed to the inner 60 wells of a 96 well round bottom microtiter culture plate in a standard format developed by the Infectious Disease Research department of Southern Research Institute. Each plate contains cell control wells (cells only), virus control wells (cells plus virus), and experimental wells (drug plus cells plus virus). Alternatively, cells were cultured in T25 cm^2 or T75 cm^2 tissue culture flasks at a starting density of 1×10^6 cells per ml. Serially diluted compounds were added to the microtiter plate or tissue culture flask followed by the appropriate pre-titered strain of HIV-1. For virus replication inhibition experiments the HIV-1 strain RoJo was used. This is a low passage presumable subtype B pediatric isolate with a syncytium inducing (SI) phenotype in MT-2 cells isolated by Southern Research Institute personnel. All samples were assayed in triplicate where possible with an accompanying determination of compound toxicity. The final volume per well in the microtiter plates was 200 μL. The final volume in the tissue culture flask varied depending upon experimental design and flask size. Assays were incubated for 6 days in a humidified atmosphere at 37° C., 5% CO2, after which supernatants were collected, for analysis of RT activity and cell viability by MTS dye reduction. Culture were also examined microscopically, any abnormalities noted, and in the case of tissue culture flasks cell counts and viability determined by Trypan Blue Dye exclusion.
Time-of-addition assays were performed with PBMCs in two ways. For both assays, PBMCs were isolated and cultured under the conditions as described above. Time-of-addition assays were carried out in either a tissue culture flask format (T-75 cm^2) or in microtiter wells. In both cases due to the lack of plastic adherence and heterogeneity of the PBMC population for susceptibility to infection, it was not possible to use complete removal of virus following a timed adsorption to synchronize the infection and limit the assay to a single round of infection. Therefore, serial washing by partial removal of the media was used to reduce the concentration of virus and compound (if required) in the assay. Compound addition in relationship to antiviral activity was either assessed over a short addition interval immediately before or after virus addition or for up to 72 h post infection. For all assays virus replication was assessed at 6 days of culture by determining RT expression in cell-free supernatants. In the tissue culture flask format cells were counted and Trypan Blue Dye exclusion used to monitor compound cytotoxicity. Cell viability in the 96 well microtiter plate format was determined by MTS dye reduction. AZT was used as a positive control.
At assay termination the assay plates were stained with the soluble tetrazolium-based dye MTS (CellTiter96® Reagent Promega) to determine cell viability and quantify compound toxicity. MTS is metabolized by the mitochondria enzymes of metabolically active cells to a soluble formazan product, allowing the rapid quantitative analysis cell viability and compound cytotoxicity. […] At termination of the assay 20 μL of MTS reagent was added per well and incubated for 4 h at 37° C. […]

PBMCs [2] = assay: PBMC apoptosis by flow cytometry (APO-BRDU kit); assay type: cell-based, Human
Procedure: Flow cytometry studies were carried out on PHA/IL-2 induced PBMCs treated for 6 days with the various test compounds. Prior to flow cytometry the PBMCs were washed, counted and 1×10^6 cells resuspended in PBS and stained for CD4 or CD8 surface markers using anti-CD4.PE or CD8.PE (both from PharMingen) for 30 min at 4° C. The PBMC were then washed, fixed (Cytofix) and permeabilized (Cytoperm) followed by staining for apoptosis-related DNA damage. Initial experiments used the BrdU Flow Kit from PharMigen (2354KK). […] For both kits, manufacturers instructions were followed for staining and analysis of the samples. Following the appropriate staining protocol the cells were analyzed using a Becton Dickinson (Bedford, Mass.) FACSSort
In another series of experiments, the IG compounds and cannabidiol treated cells were assessed for the induction of apoptosis (see Tables 8 and 9). […] As IL-2 is an essential component for maintaining the health of PHA induced PBMCs, a second focus of these studies focuses on the effect of the compounds in the absence of IL-2.

HIV-1 = assay: HeLa CD4 LTR β-gal HIV-1 attachment assay; assay type: cell-based; settings: for β-galactosidase production versus background: cells alone+compounds, at all times; for IC50: Human immunodeficiency virus 1, HeLa
Procedure: The attachment assay was performed with the HeLa CD4 LTR , β-gal cells available from the AIDS Research and Reference Reagent Repository. […] HeLa CD4 LTR β-gal cells express cell surface CD4 and contain an LTR β-galactosidase reporter construct. Upon infection either the Tat protein incorporated into the virion or new Tat produced following virus integration and transcription trans-activates the LTR β-gal reporter, leading to expression of the β-galactosidase enzyme. HeLa CD4 LTR β-gal cells are routinely cultured with the required selection antibiotics and screened for mycoplasma contamination. Twenty-four h prior to initiation of the assay cells were trypsinized, counted and 1×10^4 cells placed in a 0.2 cm well in media without selection antibiotics. […] A known titer of virus was then added to the wells and the incubation continued for 1 h. At the end of the incubation the wells were washed 6 times with media and the culture continued for 48 h. At 48 h the wells were washed one time with PBS and β-galactosidase enzyme expression determined by chemiluminescence per manufacturers instructions (Tropix Gal-screen™, Tropix, Bedford, Mass.). Compound toxicity was monitored on sister plates using MTS dye reduction.

[3] = −4 h pre (relative to infection)
[4] = IL-2 supplemented media, 15 μM, HIV +
[5] = IL-2 supplemented media, 15 μM, HIV −
[6] = IL-2 supplemented media, 30 μM, HIV +
[7] = IL-2 supplemented media, 30 μM, HIV −
[8] = IL-2 supplemented media, 50 μM, HIV +
[9] = IL-2 supplemented media, 50 μM, HIV −
[10] = IL-2 supplemented media, 100 μM, HIV +
[11] = IL-2 supplemented media, 100 μM, HIV −
[12] = Experiment 1, pretreat 4 h, read-out: IC50
[13] = Experiment 1, pretreat 24 h, read-out: IC50
[14] = Experiment 2, pretreat 4 h, read-out: IC50
[15] = Experiment 2, pretreat 24 h, read-out: IC50

C=C(C)[C@@H]1CCC(C)=C[C@H]1c1c(O)cc(CCCCC)cc1O [Cannabidiol, reference compound]
TC50 (PBMCs [1]; 6 h post infection): >100 µM
TC50 (PBMCs [1]; at infection): >100 µM
TC50 (PBMCs [1]; [3]): >100 µM
% Apoptosis (PBMCs [2]; [4]): 20.0%
Fold Change (PBMCs [2]; [4]): 1.2
% Apoptosis (PBMCs [2]; [5]): 20.5%
Fold Change (PBMCs [2]; [5]): 1.7
% Apoptosis (PBMCs [2]; [6]): 74%
Fold Change (PBMCs [2]; [6]): 4.6
% Apoptosis (PBMCs [2]; [7]): 22%
Fold Change (PBMCs [2]; [7]): 1.8
β-galactosidase production versus background (HIV-1): suppressed β-galactosidase production below background

COc1cc(C(C)(C)CCCC(C)C)cc(OC)c1OC [IG-07, 1-(1,1,5Trimethylhexyl)-3,4,5-trimethoxybenzene]
TC50 (PBMCs [1]; 6 h post infection): >100 µM
TC50 (PBMCs [1]; at infection): >100 µM
TC50 (PBMCs [1]; [3]): >100 µM
% Apoptosis (PBMCs [2]; IL-2 deficient media, 50 μM, HIV +): 32.6%
% Apoptosis (PBMCs [2]; IL-2 deficient media, 50 μM, HIV −): 27%
% Apoptosis (PBMCs [2]; IL-2 deficient media, 100 μM, HIV +): 64%
% Apoptosis (PBMCs [2]; IL-2 deficient media, 100 μM, HIV −): 54%
% Apoptosis (PBMCs [2]; [8]): 16%
Fold Change (PBMCs [2]; [8]): 1
% Apoptosis (PBMCs [2]; [9]): 14.4%
Fold Change (PBMCs [2]; [9]): 1.2
% Apoptosis (PBMCs [2]; [10]): 22.5%
Fold Change (PBMCs [2]; [10]): 1.4
% Apoptosis (PBMCs [2]; [11]): 22.8%
Fold Change (PBMCs [2]; [11]): 2
IC50 (HIV-1; Experiment 1, pretreat 0 h, read-out: IC50): > 50 µM
IC50 (HIV-1; [12]): > 50 µM
IC50 (HIV-1; [13]): > 50 µM
IC50 (HIV-1; Experiment 2, pretreat 0 h, read-out: IC50): 16 µM
IC50 (HIV-1; [14]): > 50 µM
IC50 (HIV-1; [15]): > 50 µM
transient suppression of virus replication (HIV-1; at lower concentrations of compounds, two independent experiments): observed consistently
β-galactosidase production versus background (HIV-1): suppressed β-galactosidase production below background

CC(C)=CCCC1(C)CCc2c(O)cc(C(C)(C)CCCC(C)C)cc2O1 (stereo not drawn) [IG-08, 3,4-Dihydro-2-methyl-2-(4-methyl-3-pentenyl)-7-(1,1,5-trimethylhexyl)-2H-1-benzopyran-5-ol]
TC50 (PBMCs [1]; 6 h post infection): >100 µM
TC50 (PBMCs [1]; at infection): >100 µM
TC50 (PBMCs [1]; [3]): >100 µM
% Apoptosis (PBMCs [2]; IL-2 deficient media, 15 μM, HIV +): 29%
% Apoptosis (PBMCs [2]; IL-2 deficient media, 15 μM, HIV −): 18.4%
% Apoptosis (PBMCs [2]; IL-2 deficient media, 30 μM, HIV +): 13.8%
% Apoptosis (PBMCs [2]; IL-2 deficient media, 30 μM, HIV −): 11.7%
% Apoptosis (PBMCs [2]; [4]): 19.3%
Fold Change (PBMCs [2]; [4]): 1.2
% Apoptosis (PBMCs [2]; [5]): 17.3%
Fold Change (PBMCs [2]; [5]): 1.2
% Apoptosis (PBMCs [2]; [6]): 32.1%
Fold Change (PBMCs [2]; [6]): 2
% Apoptosis (PBMCs [2]; [7]): 27.5%
Fold Change (PBMCs [2]; [7]): 2.3
IC50 (HIV-1; Experiment 1, pretreat 0 h): 16 µM
IC50 (HIV-1; [12]): 10.8 µM
IC50 (HIV-1; [13]): 7.4 µM
IC50 (HIV-1; Experiment 2, pretreat 0 h): 0.9 µM
IC50 (HIV-1; [14]): 11 µM
IC50 (HIV-1; [15]): 2.6 µM
β-galactosidase production versus background (HIV-1): suppressed β-galactosidase production below background
Comment: suppression of β-galactosidase activity (HIV-1; pretreat 0 h): Suppression of μ-galactosidase
Comment: suppression of β-galactosidase activity (HIV-1; pretreat 4 h): Suppression of μ-galactosidase
Comment: suppression of β-galactosidase activity (HIV-1; pretreat 24 h): Suppression of μ-galactosidase
